For one compound, Kd results are on record in PMC5992921, “The effect of different divalent cations on the kinetics and fidelity of Bacillus stearothermophilus DNA polymerase” (AIMS biophysics, 2018).

The experiment has as its target T1, BST pol (Bacillus stearothermophilus DNA polymerase) (Geobacillus stearothermophilus, UniProt P52026).
T1 construct: gene polA
T1 sequence (P52026 297-876 limits assumed): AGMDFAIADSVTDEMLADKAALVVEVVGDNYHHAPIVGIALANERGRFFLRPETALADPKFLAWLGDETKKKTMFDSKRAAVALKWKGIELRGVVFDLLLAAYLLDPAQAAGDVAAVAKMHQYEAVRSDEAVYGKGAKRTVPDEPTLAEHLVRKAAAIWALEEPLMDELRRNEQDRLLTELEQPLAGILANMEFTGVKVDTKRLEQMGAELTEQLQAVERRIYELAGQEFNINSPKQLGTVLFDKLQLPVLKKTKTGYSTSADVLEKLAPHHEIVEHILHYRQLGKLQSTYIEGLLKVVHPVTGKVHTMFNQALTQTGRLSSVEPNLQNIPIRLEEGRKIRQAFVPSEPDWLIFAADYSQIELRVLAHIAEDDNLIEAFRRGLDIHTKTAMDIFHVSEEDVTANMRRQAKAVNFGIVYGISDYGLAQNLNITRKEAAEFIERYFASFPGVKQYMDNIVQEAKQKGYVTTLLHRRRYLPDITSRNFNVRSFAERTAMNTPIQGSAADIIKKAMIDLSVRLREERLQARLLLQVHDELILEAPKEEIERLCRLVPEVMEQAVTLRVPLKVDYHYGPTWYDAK
Kind of experiment: equilibrium 2-aminopurine fluorescence quenching titration. Format: binding. As to conditions: read-out: Kd,g.

Molecules are shown by their SMILES.

With `Nc1ccn([C@H]2C[C@H](O)[C@@H](COP(=O)(O)OP(=O)(O)OP(=O)(O)O)O2)c(=O)n1` [dCTP], the Kd (in general, the equilibrium constant for the complex coming apart) worked out at 1460 ± 130 µM.
